The nature of this data set: Solubility of the active in lipophilic vehicles at 25° C., HPLC method. The note with it: oil or lipid. The protocol:
In this example, lipophilic vehicles with different solubilizing powers for dextromethorphan HBr were tested.

Consider 1 compound from patent US20060233873A1, “Dispersion of taste masked crystals or granules of active substances, chewable soft capsules filled with said dispersion, and process for preparing same” (priority 2003, published 2006).

By solubility is commonly meant how much of the substance goes into solution per volume. A higher solubility goes with a readily soluble substance. For the compound `COc1ccc2c(c1)[C@]13CCCC[C@@H]1[C@H](C2)N(C)CC3` [dextromethorphan HBr], the solubility is less than 1 µg/mL (in Dimethicone 100 silicone oil), 120 µg/mL (in medium chain triglycerides Mygliol 812N), approximately 1 µg/mL (in paraffin oil) and approximately 6 µg/mL (in soya oil).
